In PMC2962730 (Journal of neurochemistry, 2010):
Changes are numbered by the printed parent chain.

How the values were obtained:
hVAChT Y60A = biological target: T1, hVAChT Y60A (Homo sapiens, UniProt Q16572, Y60A); assay: [3H]vesamicol saturation binding; conditions: pH 7.4
T1 sequence (Q16572 1-532 Y60A): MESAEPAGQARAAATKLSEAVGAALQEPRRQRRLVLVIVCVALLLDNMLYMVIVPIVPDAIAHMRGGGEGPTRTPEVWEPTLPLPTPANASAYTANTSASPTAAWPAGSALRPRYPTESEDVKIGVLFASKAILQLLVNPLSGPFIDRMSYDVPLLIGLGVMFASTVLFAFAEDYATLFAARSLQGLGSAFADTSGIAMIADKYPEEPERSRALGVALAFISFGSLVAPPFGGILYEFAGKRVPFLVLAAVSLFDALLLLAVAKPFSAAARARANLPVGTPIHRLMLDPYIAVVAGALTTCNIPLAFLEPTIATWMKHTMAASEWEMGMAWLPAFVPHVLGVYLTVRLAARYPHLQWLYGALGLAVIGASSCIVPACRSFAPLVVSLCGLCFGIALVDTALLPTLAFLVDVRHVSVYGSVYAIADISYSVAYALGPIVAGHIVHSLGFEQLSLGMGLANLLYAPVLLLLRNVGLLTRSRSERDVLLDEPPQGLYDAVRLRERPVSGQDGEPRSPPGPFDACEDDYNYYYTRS

hVAChT A321F = biological target: T2, hVAChT A321F (Homo sapiens, UniProt Q16572, A321F); assay: [3H]vesamicol saturation binding; conditions: pH 7.4
T2 sequence (Q16572 1-532 A321F): T1 sequence (Q16572 1-532 Y60A) with A60Y, A321F

hVAChT W325F = biological target: T3, hVAChT W325F (Homo sapiens, UniProt Q16572, W325F); assay: [3H]vesamicol saturation binding; conditions: pH 7.4
T3 sequence (Q16572 1-532 W325F): T1 sequence (Q16572 1-532 Y60A) with A60Y, W325F

hVAChT W331A = biological target: T4, hVAChT W331A (Homo sapiens, UniProt Q16572, W331A); assay: [3H]vesamicol saturation binding; conditions: pH 7.4
T4 sequence (Q16572 1-532 W331A): T1 sequence (Q16572 1-532 Y60A) with A60Y, W331A

VAChT C391Y = conditions: ref Zhu et al. (2001); cited from earlier work
hVAChT A330V = biological target: T5, hVAChT A330V (Homo sapiens, UniProt Q16572, A330V); assay: ACh equilibrium binding by competition against [3H]vesamicol
T5 sequence (Q16572 1-532 A330V): T1 sequence (Q16572 1-532 Y60A) with A60Y, A330V

| Kd (hVAChT A330V) [mM] | decrease in the fraction of high-affinity binding by ACh (hVAChT A330V; A330V hVAChT vs wild-type) [fold] | FHA, fraction of the ACh sites that have high affinity (hVAChT A330V; A330V hVAChT, pH 7.4) | Compound | Bmax, maximal specific [3H]vesamicol binding (VAChT expression level) (hVAChT Y60A) [pmol/mg] | Bmax, maximal specific [3H]vesamicol binding (VAChT expression level) (hVAChT A321F) [pmol/mg] | Bmax, maximal specific [3H]vesamicol binding (VAChT expression level) (hVAChT W325F) [pmol/mg] | Bmax, maximal specific [3H]vesamicol binding (VAChT expression level) (hVAChT W331A) [pmol/mg] | vesamicol binding (VAChT C391Y) |
| --- | --- | --- | --- | --- | --- | --- | --- | --- |
| – | – | – | O[C@@H]1CCCC[C@H]1N1CCC(c2ccccc2)CC1 (racemic) [vesamicol, ( )-trans-2-(4-phenylpiperidino)cyclohexanol] | 31 ± 2 | 21 ± 1 | 75 ± 3 | 37 ± 2 | does not bind vesamicol |
| 12 ± 5 | 2 | 0.44 ± 0.11 | CC(=O)OCC[N+](C)(C)C [ACh, acetylcholine] | – | – | – | – | – |
